EP1039908B1, “MOLECULAR DISPERSION COMPOSITION WITH ENHANCED BIOAVAILABILITY” (SCHERING CORPORATION, priority 1997, dated 1999)

Assay: Bioavailability assay: oral single dose to monkeys, plasma analysed by HPLC-UV, AUC ratio versus amorphous suspension control
Assay type: in vivo, male cynomolgus monkeys
Conditions: for bioavailability: qualitative statement, solid dosage form development with conventional excipients
Experimental: The formulation to be tested was administered orally to male cynomolgus monkeys in a single dose (PO, single). The number of monkeys for each test is indicated by the letter "N" followed by an equal sign and a number. Thus, "(N=6)" means the formulation was administered to six monkeys. The total amount of the compound of Formula I administered was 100 or 200 mg given as one capsule or tablet containing 100 or 200 mg each. The administered dose (tablet, capsule or control suspension) was slowly washed down with 10 mL of water. Blood samples were taken at 15, 30 minutes, 1 hour, 2 hours, 4 hours. 6 hours, 8 hours, 12 hours, 24 hours, and 48 hours in heparinized syringes. Plasma for analysis was obtained by centrifugation at 4°C. Plasma samples (one per time point) were split and stored at -20°C until assayed as described below.
The monkeys to be tested were fed two biscuits in the morning on the day of drug administration.
Monkeys that were fasted were not given any food overnight before drug administration and were fed normally after the 4-hour time point after drug administration.
Samples of monkey plasma were collected at selected time intervals. The plasma was analyzed by a high pressure liquid chromatograph (HPLC) procedure with ultraviolet detection. AUC (area under the plasma concentration-time curve, […]) values were calculated using standard procedures to determine the relative bioavailability of the compound in the tested formulations. The larger the AUC value, the greater the bioavailability.
A suspension of the compound of Formula I was used as a control. The control was made by suspending sufficient compound of Formula I in methyl cellulose solution to provide a dose of 30 mg/kg of body weight of monkey. The 0.4 % methyl cellulose solution was made by adding 4 grams of methyl cellulose to one liter of distilled water and heating at about 80°C with stirring for about 1 1/2 hours.
The results of the bioavailability assay are given in terms of percent-relative bioavailability (AUC ratio) compared to amorphous suspension of Compound I in 0.4 methyl cellulose solution.

[1] = suspension, PO single dose, fed monkeys
[2] = suspension, PO single dose, feeding state not printed in the sentence (fasted monkeys implied by b156)

| Compound | bioavailability | relative bioavailability, % of the AUC of suspensions containing the amorphous form of compound I [1] | relative bioavailability, % of the C max of suspensions containing the amorphous form of compound I [1] | relative bioavailability, % of the AUC of the suspensions containing the amorphous form of compound I [2] | relative bioavailability, % of the Cmax of the suspensions containing the amorphous form of compound I [2] | bioavailability (listed as compound of Formula I) |
| --- | --- | --- | --- | --- | --- | --- |
| NC(=O)N1CCC(CC(=O)N2CCC(C3c4ncc(Br)cc4CCc4cc(Cl)cc(Br)c43)CC2)CC1 (single isomer, unassigned; (+)) [crystalline compound I, (+)-4-[4-(8-chloro-3,10-dibromo-6,11-dihydro-5H-benzo [5,6cyclohepta[1,2-b]pyridin-11-yl)-1-piperidinyl]-2-oxoethyl]-1-piperidinecarboxamide] | very poor | 3.6% | 5.2% | 1.3% | 2.7% | – |
| NC(=O)N1CCC(CC(=O)N2CCC(C3c4ncc(Br)cc4CCc4cc(Cl)cc(Br)c43)CC2)CC1 (single isomer, unassigned; (+)) [Compound I, (+)-4-[4-(8-chloro-3,10-dibromo-6,11-dihydro-5H-benzo [5,6cyclohepta[1,2-b]pyridin-11-yl)-1-piperidinyl]-2-oxoethyl]-1-piperidinecarboxamide] | – | – | – | – | – | extremely poor |
